Earlier results, collected in US11147946B2, “Venous access catheters and methods for portal venous system catheterization” (THE REGENTS OF THE UNIVERSITY OF COLORADO, A BODY CORPORATE, priority 2014, dated 2021).
One block for each compound: values may come before it. Numbered stars: 1 amine (or outer) side, 2 acyl side, 3 side chain; on linkers, the order of the positions; unused ones are H or OH. Square brackets hold non-standard residues; d marks the D form. Side chains are listed from the residue outwards. Peptide text beside a SMILES is read from it. * marks the point of attachment. Ethylenediamine = C(CN[*:2])N[*:1]; Hyp = O=C(O)[C@@H]1C[C@@H](O)CN1; Phg = N[C@H](C(=O)O)c1ccccc1; CO = O=C([*:1])[*:2]; Bn = c1ccc(C*)cc1

Key:
portal hypertension = conditions: compared with propranolol, cirrhosis
SSTR2 = SSTR2 (Homo sapiens, UniProt P30874)
Chain of SSTR2 (P30874 whole entry): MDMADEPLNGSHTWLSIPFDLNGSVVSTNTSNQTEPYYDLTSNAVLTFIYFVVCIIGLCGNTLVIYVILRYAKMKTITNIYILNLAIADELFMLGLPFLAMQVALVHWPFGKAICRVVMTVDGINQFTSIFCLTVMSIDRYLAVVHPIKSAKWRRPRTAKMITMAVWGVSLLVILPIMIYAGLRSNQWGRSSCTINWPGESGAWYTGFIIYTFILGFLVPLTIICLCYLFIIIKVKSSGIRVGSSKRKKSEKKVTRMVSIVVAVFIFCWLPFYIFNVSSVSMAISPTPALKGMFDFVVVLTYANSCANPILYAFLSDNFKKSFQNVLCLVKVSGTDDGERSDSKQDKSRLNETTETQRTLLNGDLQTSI

SSTR3 = SSTR3 (Homo sapiens, UniProt P32745)
Chain of SSTR3 (P32745 whole entry): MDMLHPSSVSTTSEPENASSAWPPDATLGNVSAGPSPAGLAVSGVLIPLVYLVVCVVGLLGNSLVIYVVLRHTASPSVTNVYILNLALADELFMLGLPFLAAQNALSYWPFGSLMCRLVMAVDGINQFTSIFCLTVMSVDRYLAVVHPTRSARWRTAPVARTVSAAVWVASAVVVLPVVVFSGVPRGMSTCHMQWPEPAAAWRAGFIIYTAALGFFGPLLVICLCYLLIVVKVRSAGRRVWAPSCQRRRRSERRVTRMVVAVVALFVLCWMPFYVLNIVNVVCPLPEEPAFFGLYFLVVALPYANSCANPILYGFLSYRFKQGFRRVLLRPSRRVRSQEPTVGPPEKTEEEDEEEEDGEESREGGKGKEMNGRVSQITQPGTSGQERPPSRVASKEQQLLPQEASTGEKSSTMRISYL

SSTR4 = SSTR4 (Homo sapiens, UniProt P31391)
Chain of SSTR4 (P31391 whole entry): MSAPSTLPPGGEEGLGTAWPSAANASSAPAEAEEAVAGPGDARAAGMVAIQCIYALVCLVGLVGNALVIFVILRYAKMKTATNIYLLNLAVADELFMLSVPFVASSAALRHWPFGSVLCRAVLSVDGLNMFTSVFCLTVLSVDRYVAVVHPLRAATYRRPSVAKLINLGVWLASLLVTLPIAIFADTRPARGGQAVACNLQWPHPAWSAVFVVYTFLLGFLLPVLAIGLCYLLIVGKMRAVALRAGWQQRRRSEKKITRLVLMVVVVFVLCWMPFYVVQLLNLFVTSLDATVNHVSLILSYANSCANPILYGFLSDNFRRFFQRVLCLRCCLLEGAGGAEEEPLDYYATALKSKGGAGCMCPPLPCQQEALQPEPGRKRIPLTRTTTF

SSTR1 = SSTR1 (Homo sapiens, UniProt P30872)
Chain of SSTR1 (P30872 whole entry): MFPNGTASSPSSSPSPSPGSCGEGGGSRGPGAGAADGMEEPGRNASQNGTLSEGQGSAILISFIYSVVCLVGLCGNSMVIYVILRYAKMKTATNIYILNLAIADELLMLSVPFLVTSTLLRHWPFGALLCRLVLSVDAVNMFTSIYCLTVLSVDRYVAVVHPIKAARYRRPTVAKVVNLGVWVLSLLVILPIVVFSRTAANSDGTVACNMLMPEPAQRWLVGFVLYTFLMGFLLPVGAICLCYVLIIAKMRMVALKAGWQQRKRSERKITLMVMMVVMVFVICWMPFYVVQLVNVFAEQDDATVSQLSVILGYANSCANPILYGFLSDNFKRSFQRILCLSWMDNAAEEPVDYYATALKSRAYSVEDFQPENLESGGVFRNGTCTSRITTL

SSTR5 = SSTR5 (Homo sapiens, UniProt P35346)
Chain of SSTR5 (P35346 whole entry): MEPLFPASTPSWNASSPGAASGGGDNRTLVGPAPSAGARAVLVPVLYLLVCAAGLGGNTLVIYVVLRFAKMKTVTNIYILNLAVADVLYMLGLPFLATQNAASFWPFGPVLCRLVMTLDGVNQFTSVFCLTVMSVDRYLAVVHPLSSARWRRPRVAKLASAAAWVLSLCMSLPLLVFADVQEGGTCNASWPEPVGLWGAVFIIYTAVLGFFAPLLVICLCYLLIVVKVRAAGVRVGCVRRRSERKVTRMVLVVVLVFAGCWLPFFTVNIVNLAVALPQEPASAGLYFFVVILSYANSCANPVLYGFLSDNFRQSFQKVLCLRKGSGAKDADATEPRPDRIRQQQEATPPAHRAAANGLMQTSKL

[1] = target: (Homo sapiens, UniProt P08069)
Chain of (Homo sapiens, UniProt P08069) (P08069 31-736 limits assumed): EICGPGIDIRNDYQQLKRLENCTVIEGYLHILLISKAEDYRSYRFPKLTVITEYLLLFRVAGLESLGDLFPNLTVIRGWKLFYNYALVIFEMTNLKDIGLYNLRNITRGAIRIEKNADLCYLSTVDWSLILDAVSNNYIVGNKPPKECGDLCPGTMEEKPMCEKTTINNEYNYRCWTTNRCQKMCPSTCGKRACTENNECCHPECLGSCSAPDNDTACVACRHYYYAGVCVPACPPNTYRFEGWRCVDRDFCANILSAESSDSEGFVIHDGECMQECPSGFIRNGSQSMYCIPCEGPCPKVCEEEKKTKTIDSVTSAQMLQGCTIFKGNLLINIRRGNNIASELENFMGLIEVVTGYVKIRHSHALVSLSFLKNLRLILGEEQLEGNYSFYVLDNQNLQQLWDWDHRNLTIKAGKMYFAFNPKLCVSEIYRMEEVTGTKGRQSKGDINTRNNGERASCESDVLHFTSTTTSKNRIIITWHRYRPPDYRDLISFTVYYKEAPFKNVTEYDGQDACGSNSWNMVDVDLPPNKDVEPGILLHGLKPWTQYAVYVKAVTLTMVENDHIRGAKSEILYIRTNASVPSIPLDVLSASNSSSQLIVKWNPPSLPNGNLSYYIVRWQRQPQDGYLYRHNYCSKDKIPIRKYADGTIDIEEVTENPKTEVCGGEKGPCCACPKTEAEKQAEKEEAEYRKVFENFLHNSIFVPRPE
Chain of (Homo sapiens, UniProt P08069) (P08069 741-1367 limits assumed): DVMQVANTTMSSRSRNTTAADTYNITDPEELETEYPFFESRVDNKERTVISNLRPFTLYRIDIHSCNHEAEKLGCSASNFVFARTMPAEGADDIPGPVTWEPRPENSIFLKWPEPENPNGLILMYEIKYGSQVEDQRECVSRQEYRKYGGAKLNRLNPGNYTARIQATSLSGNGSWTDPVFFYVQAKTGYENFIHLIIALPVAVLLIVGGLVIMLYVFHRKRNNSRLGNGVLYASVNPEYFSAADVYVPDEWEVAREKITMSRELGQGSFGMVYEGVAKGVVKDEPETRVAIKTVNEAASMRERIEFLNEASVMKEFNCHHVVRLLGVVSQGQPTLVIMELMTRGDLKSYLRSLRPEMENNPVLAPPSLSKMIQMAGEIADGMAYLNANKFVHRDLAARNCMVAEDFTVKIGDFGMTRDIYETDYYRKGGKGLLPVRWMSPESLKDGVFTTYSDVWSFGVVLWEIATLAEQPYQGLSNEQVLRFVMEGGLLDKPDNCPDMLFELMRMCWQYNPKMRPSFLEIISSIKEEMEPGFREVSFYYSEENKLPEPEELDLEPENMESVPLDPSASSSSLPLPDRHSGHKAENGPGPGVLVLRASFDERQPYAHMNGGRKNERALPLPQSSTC

[2] = system: human breast (MCF7) carcinoma cell line
[3] = system: human pancreas (BxPC-3) carcinoma cell line
[4] = system: human colon (Colo205) carcinoma cell line
human tumour = conditions: in vivo xenograft and orthotopic models

binding affinity to SSTR2 (SSTR2): high affinity | binding affinity to SSTR3 (SSTR3): reduced affinity
Compound: C[C@@H](O)[C@@H]1NC(=O)[C@H](CCCCN)NC(=O)[C@@H](Cc2c[nH]c3ccccc23)NC(=O)[C@H](Cc2ccccc2)NC(=O)[C@@H](NC(=O)[C@H](N)Cc2ccccc2)CSSC[C@@H](C(=O)N[C@H](CO)[C@@H](C)O)NC1=O [octreotide]

binding affinity to SSTR2 (SSTR2): decreased affinity | binding affinity to SSTR3 (SSTR3): decreased affinity | binding affinity to SSTR5 (SSTR5): high affinity | binding affinity to SSTR1 (SSTR1): decreased affinity
Compound: NCCCC[C@@H]1NC(=O)[C@@H](Cc2c[nH]c3ccccc23)NC(=O)[C@H](c2ccccc2)NC(=O)[C@@H]2C[C@@H](OC(=O)NCCN)CN2C(=O)[C@H](Cc2ccccc2)NC(=O)[C@H](Cc2ccc(OCc3ccccc3)cc2)NC1=O [pasireotide] (cyclo([Hyp]([CO-Ethylenediamine])[Phg][dW]KY(Bn)F))

The next lines start with the compound.

Compound: COc1ccccc1OCCNCC(O)COc1cccc2[nH]c3ccccc3c12 (stereo not shown) [carvedilol]
reduction of portal hypertension (PH) (portal hypertension): more effective than propranolol

Compound: CC(C)[C@@H]1NC(=O)[C@H](CCCCN)NC(=O)[C@@H](Cc2c[nH]c3ccccc23)NC(=O)[C@H](Cc2ccc(O)cc2)NC(=O)[C@@H](NC(=O)[C@H](N)Cc2ccc3ccccc3c2)CSSC[C@@H](C(=O)N[C@H](C(N)=O)[C@@H](C)O)NC1=O [lanreotide]
binding affinity to SSTR2 (SSTR2): high affinity | binding affinity to SSTR3 (SSTR3): reduced or no binding | binding affinity to SSTR4 (SSTR4): reduced or no binding | binding affinity to SSTR1 (SSTR1): reduced or no binding

Compound: IMC-A12: fully human monoclonal IgG1 antibody, anti-IGF1R
binding affinity [1]: high affinity | cell apoptosis [2]: induces cell apoptosis | cell proliferation [2]: inhibits cell proliferation | cell apoptosis [3]: induces cell apoptosis | cell proliferation [3]: inhibits cell proliferation | cell apoptosis [4]: induces cell apoptosis | cell proliferation [4]: inhibits cell proliferation | antitumour activity (human tumour): shown activity against a human tumour
